Measurements as given in patent US20240109917A1 (ACTELION PHARMACEUTICALS LTD, priority 2020, published 2024).
Where two headings read alike, the source gives them in different places.

Tests used:
[1] = target: His6-TEV-PDGFRβ (557-1016) (Homo sapiens (Human), UniProt P09619); assay: PDGFRβ HTRF Assay; type: biochemical; details: read-out: PDGFR HTRF IC50
Method in brief: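 Human PDGFRβ (557-1016) pre-incubated with compound for 30 min at RT in pH 7.5 HEPES/MgCl2/EGTA/Brij-35/DTT buffer. Reaction started with ATP and TK-biotin peptide, run 3 h at RT, then quenched with EDTA-containing Eu-cryptate antibody/streptavidin-XL665. HTRF 665/620 nm ratio read after 60 min; percent inhibition relative to DMSO and 10 μM imatinib controls.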

[2] = target: Tb-labeled inactive PDGFRβ (Homo sapiens (Human), UniProt P09619); assay: PDGFRβ LanthaScreen Assay; type: binding; details: read-out: PDGFR Lantha IC50
[3] = target: PDGFRβ (Rattus norvegicus (Rat), UniProt Q05030); assay: PDGFRβ Cellular Assay (PDGFRb P-Y751 HTRF in A10 cells stimulated with PDGF-BB); type: cell-based
Method in brief: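 Rat A10 cells, plated overnight, were treated with compound for 3 hours, then stimulated with PDGF-BB (working stock 100 ng/mL in 10% FBS medium). After lysis, PDGFRβ P-Y751 was detected by HTRF.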

Sequence of Tb-labeled inactive PDGFRβ (P09619 33-1106): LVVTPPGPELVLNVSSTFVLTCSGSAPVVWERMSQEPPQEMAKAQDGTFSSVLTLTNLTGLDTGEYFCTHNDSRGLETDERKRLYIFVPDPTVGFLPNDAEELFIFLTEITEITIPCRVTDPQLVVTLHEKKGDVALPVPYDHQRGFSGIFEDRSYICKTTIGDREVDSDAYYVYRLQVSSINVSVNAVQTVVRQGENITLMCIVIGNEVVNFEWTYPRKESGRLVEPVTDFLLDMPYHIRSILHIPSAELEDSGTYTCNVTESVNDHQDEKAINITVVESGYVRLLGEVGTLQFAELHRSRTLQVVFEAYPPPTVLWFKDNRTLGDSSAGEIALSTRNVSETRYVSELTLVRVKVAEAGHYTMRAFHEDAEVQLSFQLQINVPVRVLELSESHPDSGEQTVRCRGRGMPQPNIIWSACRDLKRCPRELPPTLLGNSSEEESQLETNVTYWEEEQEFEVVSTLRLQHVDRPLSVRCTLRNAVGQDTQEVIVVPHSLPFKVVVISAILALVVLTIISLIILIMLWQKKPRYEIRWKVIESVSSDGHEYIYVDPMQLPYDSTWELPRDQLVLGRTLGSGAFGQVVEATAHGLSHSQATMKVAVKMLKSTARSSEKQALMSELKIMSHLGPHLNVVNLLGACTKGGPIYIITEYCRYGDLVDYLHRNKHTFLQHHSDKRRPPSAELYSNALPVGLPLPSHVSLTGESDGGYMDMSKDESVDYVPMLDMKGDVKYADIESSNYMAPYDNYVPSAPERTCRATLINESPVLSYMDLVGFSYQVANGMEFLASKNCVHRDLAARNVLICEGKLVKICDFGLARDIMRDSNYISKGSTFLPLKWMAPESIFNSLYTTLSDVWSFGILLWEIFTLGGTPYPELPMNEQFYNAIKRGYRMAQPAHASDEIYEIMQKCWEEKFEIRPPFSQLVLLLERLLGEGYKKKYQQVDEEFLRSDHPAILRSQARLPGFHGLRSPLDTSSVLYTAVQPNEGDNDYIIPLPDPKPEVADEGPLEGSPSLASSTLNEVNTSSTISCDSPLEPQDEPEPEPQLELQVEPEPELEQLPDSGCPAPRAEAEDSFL
Sequence of His6-TEV-PDGFRβ (557-1016) (P09619 557-1016): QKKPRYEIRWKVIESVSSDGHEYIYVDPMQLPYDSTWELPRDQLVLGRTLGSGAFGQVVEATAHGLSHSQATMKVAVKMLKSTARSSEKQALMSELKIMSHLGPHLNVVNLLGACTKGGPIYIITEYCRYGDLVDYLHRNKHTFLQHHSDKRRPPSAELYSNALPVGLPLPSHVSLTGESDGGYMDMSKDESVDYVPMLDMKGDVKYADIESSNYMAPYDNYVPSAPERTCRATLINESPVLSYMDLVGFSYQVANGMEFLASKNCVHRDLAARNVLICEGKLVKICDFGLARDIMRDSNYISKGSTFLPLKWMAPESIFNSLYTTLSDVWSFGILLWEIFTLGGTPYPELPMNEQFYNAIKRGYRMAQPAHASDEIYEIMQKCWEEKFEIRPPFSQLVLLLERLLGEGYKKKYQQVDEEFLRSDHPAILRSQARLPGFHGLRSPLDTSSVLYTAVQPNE
Sequence of PDGFRβ (Q05030 32-1097): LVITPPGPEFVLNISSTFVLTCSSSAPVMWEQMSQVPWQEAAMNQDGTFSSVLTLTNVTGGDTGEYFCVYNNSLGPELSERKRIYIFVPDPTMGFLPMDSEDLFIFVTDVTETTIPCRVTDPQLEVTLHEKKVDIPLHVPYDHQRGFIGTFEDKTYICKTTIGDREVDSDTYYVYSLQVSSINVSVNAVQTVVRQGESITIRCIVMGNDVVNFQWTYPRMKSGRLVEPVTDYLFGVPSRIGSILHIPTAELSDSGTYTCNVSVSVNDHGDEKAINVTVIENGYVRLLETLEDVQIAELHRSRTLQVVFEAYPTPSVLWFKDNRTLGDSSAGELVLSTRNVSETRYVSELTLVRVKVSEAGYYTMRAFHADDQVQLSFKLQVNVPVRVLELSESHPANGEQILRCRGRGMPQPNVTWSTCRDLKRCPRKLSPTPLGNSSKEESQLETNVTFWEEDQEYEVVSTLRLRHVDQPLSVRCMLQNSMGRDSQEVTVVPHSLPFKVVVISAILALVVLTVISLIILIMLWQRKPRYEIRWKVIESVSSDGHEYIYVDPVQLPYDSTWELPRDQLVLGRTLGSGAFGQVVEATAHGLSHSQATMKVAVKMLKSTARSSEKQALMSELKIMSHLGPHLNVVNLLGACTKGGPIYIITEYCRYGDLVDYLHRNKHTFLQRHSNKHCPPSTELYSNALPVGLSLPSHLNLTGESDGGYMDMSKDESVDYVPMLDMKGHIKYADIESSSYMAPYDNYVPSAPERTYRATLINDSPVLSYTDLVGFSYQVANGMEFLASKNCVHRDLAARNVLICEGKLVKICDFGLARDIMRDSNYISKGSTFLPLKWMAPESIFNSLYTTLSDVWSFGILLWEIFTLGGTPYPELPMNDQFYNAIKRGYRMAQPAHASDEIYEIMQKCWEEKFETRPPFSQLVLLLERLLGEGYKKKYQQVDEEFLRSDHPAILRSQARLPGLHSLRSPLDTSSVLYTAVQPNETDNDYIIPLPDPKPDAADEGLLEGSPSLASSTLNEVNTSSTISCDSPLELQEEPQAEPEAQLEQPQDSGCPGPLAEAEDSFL

Structure (SMILES) | IC50 [1] | IC50 [2] | IC50 ([3]; read-out: PDGFR Cellular IC50) | IC50 ([3]; PDGFR Cellular IC50)
COCCn1cc(-c2cn3ncc(C(=O)Nc4cc(NC(=O)C[C@@H]5CCCN5C(C)C)cnc4C)c3s2)cn1 [Example 451, (S)—N-(5-(2-(1-isopropylpyrrolidin-2-yl)acetamido)-2-methylpyridin-3-yl)-2-(1-(2-methoxyethyl)-1H-pyrazol-4-yl)pyrazolo[5,1-b]thiazole-7-carboxamide] | 0.8 nM | 16.1 nM | 67 nM | 
COCCn1cc(-c2cn3ncc(C(=O)Nc4cc(NC(=O)C[C@@H]5CCN(C(C)C)C5)cnc4C)c3s2)cn1 [Example 466, (S)—N-(5-(2-(1-isopropylpyrrolidin-3-yl)acetamido)-2-methylpyridin-3-yl)-2-(1-(2-methoxyethyl)-1H-pyrazol-4-yl)pyrazolo[5,1-b]thiazole-7-carboxamide] | 9 nM | 261 nM | 350 nM | 
Cc1ncc(NC(=O)CN2CCCC23CCC3)cc1NC(=O)c1cnn2cc(-c3cnc4n3CCOC4)sc12 [Example 418, N-(5-(2-(5-azaspiro[3.4]octan-5-yl)acetamido)-2-methylpyridin-3-yl)-2-(5,6-dihydro-8H-imidazo[2,1-c][1,4]oxazin-3-yl)pyrazolo[5,1-b]thiazole-7-carboxamide] | 0.5 nM | 2.9 nM | 6.5 nM | 
Cc1ncc(NC(=O)CN2CCC2)cc1NC(=O)c1cnn2cc(-c3cnn4c3OCCC4)sc12 [Example 412, N-(5-(2-(azetidin-1-yl)acetamido)-2-methylpyridin-3-yl)-2-(6,7-dihydro-5H-pyrazolo[5,1-b][1,3]oxazin-3-yl)pyrazolo[5,1-b]thiazole-7-carboxamide] | 1.4 nM | 34.6 nM | 77.2 nM | 
Cc1ncc(NC(=O)CNC2CCCC2)cc1NC(=O)c1cnn2cc(-c3cnn4c3OCCC4)sc12 [Example 421, N-(5-(2-(cyclopentylamino)acetamido)-2-methylpyridin-3-yl)-2-(6,7-dihydro-5H-pyrazolo[5,1-b][1,3]oxazin-3-yl)pyrazolo[5,1-b]thiazole-7-carboxamide] | 0.2 nM | 2 nM | 6.2 nM | 
Cc1ncc(NC(=O)CN2CCC3(CC3)C2)cc1NC(=O)c1cnn2cc(-c3cnn4c3COCC4)sc12 [Example 474, N-(5-(2-(5-azaspiro[2.4]heptan-5-yl)acetamido)-2-methylpyridin-3-yl)-2-(6,7-dihydro-4H-pyrazolo[5,1-c][1,4]oxazin-3-yl)pyrazolo[5,1-b]thiazole-7-carboxamide] | 0.2 nM | 1.7 nM | 3.9 nM | 
Cc1cc(C(=O)NCCN2CCCC23CCC3)sc1NC(=O)c1cnn2cc(-c3cnn(C)c3)sc12 [Example 35, N-(5-((2-(5-azaspiro[3.4]octan-5-yl)ethyl)carbamoyl)-3-methylthiophen-2-yl)-2-(1-methyl-1H-pyrazol-4-yl)pyrazolo[5,1-b]thiazole-7-carboxamide] | 1.6 nM | 71.4 nM | 33.6 nM | 
Cc1ncc(NC(=O)CN2CCCC2(C)C)cc1NC(=O)c1cnn2cc(-c3cccnc3OCCF)sc12 [Example 448, N-(5-(2-(2,2-dimethylpyrrolidin-1-yl)acetamido)-2-methylpyridin-3-yl)-2-(2-(2-fluoroethoxy)pyridin-3-yl)pyrazolo[5,1-b]thiazole-7-carboxamide] | 0.2 nM | 1.8 nM | 2.4 nM | 
Cc1ncc(NC(=O)C[C@@H]2CCN(C(C)C)C2)cc1NC(=O)c1cnn2cc(-c3cnn(C)c3)sc12 [Example 464, (S)—N-(5-(2-(1-isopropylpyrrolidin-3-yl)acetamido)-2-methylpyridin-3-yl)-2-(1-methyl-1H-pyrazol-4-yl)pyrazolo[5,1-b]thiazole-7-carboxamide] | 5.2 nM | 145 nM | 2000 nM | 
Cc1ncc(C(=O)NCCN2CC(C)(C)C2)cc1NC(=O)c1cnn2cc(-c3cnn4c3CCC4)sc12 [Example 482, 2-(5,6-dihydro-4H-pyrrolo[1,2-b]pyrazol-3-yl)-N-(5-((2-(3,3-dimethylazetidin-1-yl)ethyl)carbamoyl)-2-methylpyridin-3-yl)pyrazolo[5,1-b]thiazole-7-carboxamide] | 0.2 nM | 1.6 nM | 28.6 nM | 
Cc1ncc(NC(=O)C[C@H]2CCN(C(C)C)C2)cc1NC(=O)c1cnn2cc(-c3cnn(C)c3)sc12 [Example 465, (R)—N-(5-(2-(1-isopropylpyrrolidin-3-yl)acetamido)-2-methylpyridin-3-yl)-2-(1-methyl-1H-pyrazol-4-yl)pyrazolo[5,1-b]thiazole-7-carboxamide] | 3 nM | 73.9 nM | 1860 nM | 
Cc1ncc(NC(=O)CN2CC(C)(C)C2)cc1NC(=O)c1cnn2cc(-c3cnn4c3COCC4)sc12 [Example 476, 2-(6,7-dihydro-4H-pyrazolo[5,1-c][1,4]oxazin-3-yl)-N-(5-(2-(3,3-dimethylazetidin-1-yl)acetamido)-2-methylpyridin-3-yl)pyrazolo[5,1-b]thiazole-7-carboxamide] | 0.2 nM | 1.7 nM | 4.9 nM | 
Cc1ncc(C(=O)NCCN2CCCC2(C)C)cc1NC(=O)c1cnn2cc(-c3cnn4c3CCC4)sc12 [Example 481, 2-(5,6-dihydro-4H-pyrrolo[1,2-b]pyrazol-3-yl)-N-(5-((2-(2,2-dimethylpyrrolidin-1-yl)ethyl)carbamoyl)-2-methylpyridin-3-yl)pyrazolo[5,1-b]thiazole-7-carboxamide] | 0.3 nM | 2 nM | 3.9 nM | 
Cc1ncc(NC(=O)CNC2CCCC2)cc1NC(=O)c1cnn2cc(-c3cnn4c3CCC4)sc12 [Example 422, N-(5-(2-(cyclopentylamino)acetamido)-2-methylpyridin-3-yl)-2-(5,6-dihydro-4H-pyrrolo[1,2-b]pyrazol-3-yl)pyrazolo[5,1-b]thiazole-7-carboxamide] | 0.2 nM | 1.1 nM | 2.6 nM | 
Cc1cc(C(=O)NCCN2CCCC2(C)C)sc1NC(=O)c1cnn2cc(-c3cccnc3)sc12 [Example 36, N-(5-((2-(2,2-dimethylpyrrolidin-1-yl)ethyl)carbamoyl)-3-methylthiophen-2-yl)-2-(pyridin-3-yl)pyrazolo[5,1-b]thiazole-7-carboxamide] | 0.5 nM | 19.3 nM | 9 nM | 
Cc1ncc(NC(=O)CN2CC(C)(C)C2)cc1NC(=O)c1cnn2cc(-c3nn(C)nc3C)sc12 [Example 445, 2-(2,5-Dimethyl-2H-1,2,3-triazol-4-yl)-N-(5-(2-(3,3-dimethylazetidin-1-yl)acetamido)-2-methylpyridin-3-yl)pyrazolo[5,1-b]thiazole-7-carboxamide] | 0.3 nM | 2.1 nM | 2.2 nM | 
Cc1cc(C(=O)NCCN2CCCC23CC3)sc1NC(=O)c1cnn2cc(-c3cnn(C)c3)sc12 [Example 37, N-(5-((2-(4-azaspiro[2.4]heptan-4-yl)ethyl)carbamoyl)-3-methylthiophen-2-yl)-2-(1-methyl-1H-pyrazol-4-yl)pyrazolo[5,1-b]thiazole-7-carboxamide] | 22.8 nM | 892 nM | 11.2 nM | 
Cc1ncc(NC(=O)CN2CC(C)(C)C2)cc1NC(=O)c1cnn2cc(-c3c(C)nn(C4COC4)c3C)sc12 [Example 425, 2-(3,5-dimethyl-1-(oxetan-3-yl)-1H-pyrazol-4-yl)-N-(5-(2-(3,3-dimethylazetidin-1-yl)acetamido)-2-methylpyridin-3-yl)pyrazolo[5,1-b]thiazole-7-carboxamide] | 0.7 nM | 6.8 nM |  | 11.7 nM
Cc1ncc(C(=O)NCCN2CCCC2(C)C)cc1NC(=O)c1cnn2cc(-c3cnn4c3COCC4)sc12 [Example 450, 2-(6,7-dihydro-4H-pyrazolo[5,1-c][1,4]oxazin-3-yl)-N-(5-((2-(2,2-dimethylpyrrolidin-1-yl)ethyl)carbamoyl)-2-methylpyridin-3-yl)pyrazolo[5,1-b]thiazole-7-carboxamide] | 0.4 nM | 2.4 nM | 21.6 nM | 
Cc1ncc(NC(=O)CN2C[C@@H](C)O[C@H](C)C2)cc1NC(=O)c1cnn2cc(-c3cn(C)nc3C)sc12 [Example 431] | 0.5 nM | 3.5 nM | 5 nM | 
COc1ccncc1-c1cn2ncc(C(=O)Nc3cc(NC(=O)CN4CC(C)(C)C4)cnc3C)c2s1 [Example 40, N-(5-(2-(3,3-dimethylazetidin-1-yl)acetamido)-2-methylpyridin-3-yl)-2-(4-methoxypyridin-3-yl)pyrazolo[5,1-b]thiazole-7-carboxamide] | 0.27 nM | 1.7 nM | 2 nM | 
COC1(C)CN(CC(=O)Nc2cnc(C)c(NC(=O)c3cnn4cc(-c5cn(C)nc5C)sc34)c2)C1 [Example 442, 2-(1,3-Dimethyl-1H-pyrazol-4-yl)-N-(5-(2-(3-methoxy-3-methylazetidin-1-yl)acetamido)-2-methylpyridin-3-yl)pyrazolo[5,1-b]thiazole-7-carboxamide] | 0.3 nM | 3.1 nM | 8.1 nM | 
Cc1ncc(NC(=O)CN2CC(C)(C)C2)cc1NC(=O)c1cnn2cc(-c3ccnnc3C)sc12 [Example 410, N-(5-(2-(3,3-dimethylazetidin-1-yl)acetamido)-2-methylpyridin-3-yl)-2-(3-methylpyridazin-4-yl)pyrazolo[5,1-b]thiazole-7-carboxamide] | 6.2 nM | 190 nM |  | 270 nM
